Reference: patent publication US9857356B2, “Muscle chips and methods of use thereof” (President and Fellows of Harvard College, priority 2011, dated 2018)
Bridges are numbered along the chain shown (N, C = ends). Where no end group is shown, it is not given here.

Assays:
[1] = test system: Human umbilical artery vascular smooth muscle; test: Vascular muscular thin film (vMTF) contractility assay, films on posts; assay type: cell-based
Description: Human umbilical artery vascular smooth muscle was seeded on thin films at 300 cells/mm^2 in complete M199 medium (M199 supplemented with 10% fetal bovine serum (FBS), penicillin, streptomycin, L-glutamine, glucose and vitamin B12). The tissue was cultured in complete M199 for 48 hours, with a single media change at 24 hours. After 48 hours, the cells were serum starved for an additional 48 hours (M199 supplemented with penicillin, streptomycin, L-glutamine, glucose and vitamin B12, but no FBS).
Muscle thin films were transferred to fresh Tyrode's solution in the testing dish (FIG. 1), which is maintained at 37° C. by a peltier heating system. Films were adhered to Teflon coated posts (FIG. 3) by moving them into close contact using tweezers. The films were imaged using a stereomicroscope outfitted with fluorescent imaging capability. Both brightfield and fluorescent images were captured every thirty seconds. In the experiment shown in FIG. […]
Quantification and analysis of thin film motion was performed using ImageJ (NIH) and MATLAB software. Thresholded fluorescent images (FIG. 4B) were fit to circles whose radii of curvature could be measured (FIG. 4C). Using elasticity theory, the contraction stress necessary to induce the measured changes in curvature were calculated (FIG. 4D). […]

[2] = test system: vascular smooth muscle cells; test: Horizontal vascular smooth muscle thin film (hMTF) contractility assay; assay type: cell-based
Description: FIG. 12 contrasts the use of fluorescent microscopy and the use of brightfield stereo microscopy of vascular smooth muscle (VSM) horizontal MTFs during an assay of the invention as described in Example 5. The top row depicts fluorescent microscopy photographs of VSM horizontal MTFs comprising fluorescent beads embedded in the PDMS film. […] (A) Photographs taken 5 minutes after the start of the experiment, the films are slightly bent up from the glass due to the initial contraction of VSM. […] Polydimethylsiloxane (PDMS) thin film substrates were fabricated via a multi-step spin coating process. Poly(N-isopropylacrylamide) ([…]) (Polysciences, Inc.) was dissolved at 10 wt % in 99.4% 1-butanol (w/v) and was then deposited as a thin layer onto the open glass islands, then the top protective film layer was peeled off. Sylgard 184 (Dow Corning) polydimethylsiloxane (PDMS) elastomer was mixed at a 10:1 base to curing agent ratio doped with 0.1% by volume […] Fluorospheres (Invitrogen), and spun coated on top of the […] coated glass cover slip which was then cured. The next day, the bottom protective film was peeled off. A mask, printed on transparencies was used to cut the glass into desired shapes. MTFs were released from the cover slip once the cells have formed the appropriate 2D microstructure. The MTFs were either cut out by hand, cut out using a robotic system, pre-cut prior to cell incubation. In one specific example of, e.g., horizontal MTF production, the middle section was cut out, so that only six rectangles remained in the area that had […]). Once the Tyrode's solution cools below 35° C., the […] layer transitions from a hydrophobic state to a hydrophilic state and begins to dissolve. As the […] dissolved the middle section cutout was peeled off the substrate with a pair of tweezers. Once the […] dissolves completely, the contraction of the myocytes pulls the MTF (the remaining rectangles) free from the rigid substrate. In the case of the horizontal MTF, rectangles remain with one end partially fixed to the substrate. Actuation and observation of multiple MTFs was carried out in a physiologic solution (e.g., normal Tyrodes solution). The horizontal […]) fabricated with vascular smooth muscle cells in the presence of fluorescent beads were treated with the endothelium-produced vasoconstrictor endothelin-1 (ET-1) followed by the rho-kinase inhibitor HA-1077. […] Quantification and analysis of thin film motion was performed using ImageJ (NIH) and MATLAB software. From the thresholded fluorescent images the length of the projection of the film on the horizontal plane was tracked throughout the contraction and the radius of curvature calculated. Using elasticity theory, the contraction stress necessary to induce the measured changes in curvature were calculated.

Compound	increase in cell generated stress ([1]; vMTFs stimulated with 50 nM ET-1 at time 0)	effect on VSM horizontal MTFs (FIG. 12B) ([2]; 20 minutes after addition of the vasoconstrictor)	change in radius of curvature ([2]; hMTFs stimulated with 50 nM ET-1 at time 0)	stress after treatment (residual stress) ([1]; vMTFs, 100 mM HA-1077 following ET-1)	effect on VSM horizontal MTFs (FIG. 12C) ([2]; 30 minutes after addition of the rho-kinase inhibitor)	change in radius of curvature ([2]; hMTFs, 100 mM HA-1077 following ET-1)
endothelin-1 (CSCSSLMDKECVYFCHLDIIW; disulfide 1-15, 3-11; ends not checked; UniProt P05305 53-73, looked up) [ET-1, endothelium-produced vasoconstrictor]	5.06±0.75 kPa	causes the VSM to contract	decrease in their radii of curvature			
O=S(=O)(c1cccc2cnccc12)N1CCCNCC1 [HA-1077, fasudil]				3.1±0.8 kPa	causes the VSM to completely relax	rapid increase in radius of curvature
